Assay results: paper PMC4741878, “Specific inhibition by synthetic analogs of pyruvate reveals that the pyruvate dehydrogenase reaction is essential for metabolism and viability of glioblastoma cells” (Oncotarget, 2015)

Columns and labels:
[1] = molecular target: T1, pyruvate dehydrogenase (PDH; E1 component of the pyruvate dehydrogenase complex, PDHC) (Rattus norvegicus, UniProt P26284+P49432); assay: overall PDHC reaction by NADH production: Ki in permeabilized mitochondria; IC50 […] with isolated rat heart PDHC ([…] min preincubation); type: biochemical
T1 construct: gene Pdha1; native PDHC partially purified from rat heart or liver; PDHC in alamethicin-permeabilized rat skeletal muscle mitochondria; with PDHB (E1 beta subunit), within the PDHC with DLAT, DLD and PDHX

[2] = molecular target: T1, pyruvate dehydrogenase (PDH; E1 component of the pyruvate dehydrogenase complex, PDHC); assay: overall PDHC reaction by NADH production: Ki in permeabilized mitochondria; IC50 […] with isolated rat heart PDHC at […] pyruvate; type: biochemical

T1 sequence (P26284 30-390): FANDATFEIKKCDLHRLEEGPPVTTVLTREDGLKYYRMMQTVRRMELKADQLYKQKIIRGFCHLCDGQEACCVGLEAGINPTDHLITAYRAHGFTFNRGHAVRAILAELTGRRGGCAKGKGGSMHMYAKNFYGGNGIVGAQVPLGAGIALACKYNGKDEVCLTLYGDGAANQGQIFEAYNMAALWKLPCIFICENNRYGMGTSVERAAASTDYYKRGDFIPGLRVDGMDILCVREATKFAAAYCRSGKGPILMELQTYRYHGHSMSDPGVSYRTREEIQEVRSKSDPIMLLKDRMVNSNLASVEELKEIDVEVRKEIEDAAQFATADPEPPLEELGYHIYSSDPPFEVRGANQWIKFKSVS
T1 sequence (P49432 31-359): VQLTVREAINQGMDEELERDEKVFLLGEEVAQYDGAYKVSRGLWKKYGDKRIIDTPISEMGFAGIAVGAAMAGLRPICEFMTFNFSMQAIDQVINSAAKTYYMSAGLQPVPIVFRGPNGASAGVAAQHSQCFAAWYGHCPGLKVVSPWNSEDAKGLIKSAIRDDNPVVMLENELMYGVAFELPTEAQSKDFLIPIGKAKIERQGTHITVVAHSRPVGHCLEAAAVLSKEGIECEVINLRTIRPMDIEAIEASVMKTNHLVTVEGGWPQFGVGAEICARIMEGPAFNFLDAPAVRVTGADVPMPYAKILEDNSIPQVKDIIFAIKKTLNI
T1 sequence (P08461 78-632 partner): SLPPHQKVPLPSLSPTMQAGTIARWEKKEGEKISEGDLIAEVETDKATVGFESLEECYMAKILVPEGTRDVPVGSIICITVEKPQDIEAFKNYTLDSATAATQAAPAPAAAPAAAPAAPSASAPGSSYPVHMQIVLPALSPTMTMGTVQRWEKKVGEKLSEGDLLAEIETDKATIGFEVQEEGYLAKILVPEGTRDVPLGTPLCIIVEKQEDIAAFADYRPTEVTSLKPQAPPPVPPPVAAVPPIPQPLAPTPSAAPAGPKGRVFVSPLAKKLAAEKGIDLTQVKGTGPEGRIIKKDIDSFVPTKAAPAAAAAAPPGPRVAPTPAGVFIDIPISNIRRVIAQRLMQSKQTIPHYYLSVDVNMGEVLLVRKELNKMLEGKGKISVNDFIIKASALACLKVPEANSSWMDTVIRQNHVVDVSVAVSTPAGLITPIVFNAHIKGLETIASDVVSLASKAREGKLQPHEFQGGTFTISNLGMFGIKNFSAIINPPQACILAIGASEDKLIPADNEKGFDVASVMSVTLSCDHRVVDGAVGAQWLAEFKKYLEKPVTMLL
T1 sequence (Q6P6R2 36-509 partner): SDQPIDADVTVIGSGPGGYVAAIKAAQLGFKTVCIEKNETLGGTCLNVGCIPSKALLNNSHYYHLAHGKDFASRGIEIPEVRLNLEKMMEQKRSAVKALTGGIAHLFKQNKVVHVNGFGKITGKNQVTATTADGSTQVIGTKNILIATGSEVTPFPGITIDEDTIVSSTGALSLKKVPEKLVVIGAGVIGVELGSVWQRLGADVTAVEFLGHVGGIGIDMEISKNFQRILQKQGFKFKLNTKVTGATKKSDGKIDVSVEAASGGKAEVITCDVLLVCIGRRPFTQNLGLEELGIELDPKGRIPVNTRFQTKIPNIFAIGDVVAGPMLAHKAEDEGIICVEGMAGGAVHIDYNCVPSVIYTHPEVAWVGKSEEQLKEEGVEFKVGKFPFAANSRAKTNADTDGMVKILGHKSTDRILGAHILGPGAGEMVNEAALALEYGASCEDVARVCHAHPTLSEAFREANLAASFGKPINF

CC(=O)[PH](=O)O [AcPH, acetyl phosphinate]
Ki [1]: 0.1 µM

COP(=O)(O)C(C)=O [AcPMe, methyl ester of acetyl phosphonate]
Ki [2]: 40 µM
